Data from patent publication US4563527A, “Amidine compounds” (Torii & Co., Ltd., priority 1984, dated 1986).
Where two headings read alike, the source gives them in different places.

Tests used:
Trypsin = molecular target: T1, Trypsin (Bos taurus, UniProt P00760); assay: Anti-trypsin activity (hydrolysis of TAME); type: biochemical; details: molar concentration inhibiting 50% of TAME hydrolysis; read-out: ID50 trypsin
T1 sequence (P00760 24-246): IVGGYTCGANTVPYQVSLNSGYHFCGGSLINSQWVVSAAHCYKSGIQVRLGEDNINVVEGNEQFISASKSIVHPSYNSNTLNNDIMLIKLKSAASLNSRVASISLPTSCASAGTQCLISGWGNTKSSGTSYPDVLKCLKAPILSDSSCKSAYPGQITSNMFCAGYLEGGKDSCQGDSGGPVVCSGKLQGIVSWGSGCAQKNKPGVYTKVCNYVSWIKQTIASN
Experimental: (§1) The anti-trypsin, anti-plasmin, anti-kallikrein and anti-thrombin activities were determined according to the method of Muramatsu et al. [M. Muramatus, T. Onishi, S. Makino, Y. Hayashi and S. Fujii, J. of Biochem., 58, 214 (1965)]. The data summarized in Table 1 are expressed in terms of molar concentration (ID50) of the test compound which inhibits 50% of the activity of each enzyme to hydrolyze TAME (tosylalginine methyl ester). The compound No. corresponds to the compound number shown in Examples.

Plasmin = Plasmin (Homo sapiens, UniProt P00747); assay: Anti-plasmin activity (hydrolysis of TAME); type: biochemical; details: molar concentration inhibiting 50% of TAME hydrolysis; read-out: ID50 plasmin
Experimental: The anti-trypsin, anti-plasmin, anti-kallikrein and anti-thrombin activities were determined according to the method of Muramatsu et al. [M. Muramatus, T. Onishi, S. Makino, Y. Hayashi and S. Fujii, J. of Biochem., 58, 214 (1965)]. […] The compound No. corresponds to the compound number shown in Examples.

Kallikrein = assay: Anti-kallikrein activity (hydrolysis of TAME); type: biochemical; details: molar concentration inhibiting 50% of TAME hydrolysis; read-out: ID50 kallikrein
Experimental: as §1

Thrombin = Thrombin (Homo sapiens, UniProt P00734); assay: biochemical; details: read-out: ID50 thrombin
C1r = molecular target: T2, C1r (Homo sapiens, UniProt P00736); assay: biochemical; details: molar concentration inhibiting 50% of AAME hydrolysis; read-out: ID50 C1r (Anti-C1 activity)
T2 sequence (P00736 464-705 limits assumed): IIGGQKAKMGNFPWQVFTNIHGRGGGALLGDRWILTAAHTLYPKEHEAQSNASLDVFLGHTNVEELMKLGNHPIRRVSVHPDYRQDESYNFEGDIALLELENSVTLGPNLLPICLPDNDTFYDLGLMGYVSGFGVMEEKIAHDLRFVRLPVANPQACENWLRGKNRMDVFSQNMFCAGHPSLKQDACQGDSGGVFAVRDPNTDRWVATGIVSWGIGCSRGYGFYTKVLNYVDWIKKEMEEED
T2 sequence (P00736 18-463 partner limits assumed): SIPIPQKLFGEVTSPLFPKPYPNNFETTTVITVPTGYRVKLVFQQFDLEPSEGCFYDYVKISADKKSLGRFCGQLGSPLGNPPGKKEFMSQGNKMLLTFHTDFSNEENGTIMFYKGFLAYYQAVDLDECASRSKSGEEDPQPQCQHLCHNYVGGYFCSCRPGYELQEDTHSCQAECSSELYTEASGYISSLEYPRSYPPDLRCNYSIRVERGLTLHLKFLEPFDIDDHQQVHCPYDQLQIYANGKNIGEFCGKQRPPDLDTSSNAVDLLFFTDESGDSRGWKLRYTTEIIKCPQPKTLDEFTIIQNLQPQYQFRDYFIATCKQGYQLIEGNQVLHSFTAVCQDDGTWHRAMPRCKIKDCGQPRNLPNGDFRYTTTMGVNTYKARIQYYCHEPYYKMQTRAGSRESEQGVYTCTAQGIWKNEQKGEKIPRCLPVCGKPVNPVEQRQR

C1s = molecular target: T3, C1s (Homo sapiens, UniProt P09871); assay: Anti-C1s activity (hydrolysis of ATEE); type: biochemical; details: molar concentration inhibiting 50% of ATEE hydrolysis; read-out: ID50 C1s (Anti-C1 activity)
T3 sequence (P09871 438-688 limits assumed): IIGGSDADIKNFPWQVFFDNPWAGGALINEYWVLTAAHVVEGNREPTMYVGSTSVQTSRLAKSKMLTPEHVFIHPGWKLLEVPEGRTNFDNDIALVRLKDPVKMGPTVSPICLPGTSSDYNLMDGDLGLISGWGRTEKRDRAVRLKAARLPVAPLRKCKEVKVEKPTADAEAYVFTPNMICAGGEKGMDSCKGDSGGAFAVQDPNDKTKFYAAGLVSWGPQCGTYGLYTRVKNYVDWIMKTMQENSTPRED
T3 sequence (P09871 16-437 partner limits assumed): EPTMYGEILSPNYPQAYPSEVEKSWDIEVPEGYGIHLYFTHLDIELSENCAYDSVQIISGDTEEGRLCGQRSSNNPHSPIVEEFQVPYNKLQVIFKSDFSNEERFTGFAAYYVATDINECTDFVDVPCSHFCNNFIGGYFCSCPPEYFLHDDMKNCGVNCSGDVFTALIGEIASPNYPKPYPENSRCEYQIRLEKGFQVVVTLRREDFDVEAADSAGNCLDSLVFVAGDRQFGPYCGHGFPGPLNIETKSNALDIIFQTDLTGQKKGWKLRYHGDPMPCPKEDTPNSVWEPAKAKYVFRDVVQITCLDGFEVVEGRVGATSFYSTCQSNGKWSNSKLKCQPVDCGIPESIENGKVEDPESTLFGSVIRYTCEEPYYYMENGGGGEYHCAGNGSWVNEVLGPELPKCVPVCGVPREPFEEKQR
Experimental: The anti-C1 esterase (C1r, C1s) activity was determined according to the method of Okamura et al. [K. Okamura, M. Muramatsu and B. Fujii, Biochem. Biophys. Acta, 295, 252-257 (1973)]. The inhibition of complement mediated hemolysis was determined according to the method of Baker et al. [B. R. Baker and E. H. Erickson, J. Med. Chem. 12, 408-414 (1969)]. The figures in Table 2 have the following meanings:
C1s: Molar concentration of the test compound which inhibits 50% of the ability of C1s to hydrolyse ATEE (acetyltyrosin ethyl ester) (ID50).

complement = assay: Inhibition of complement mediated hemolysis; type: cell-based
Experimental: The complement mediated hemolysis is widely used as a means to determine the titration of complement. The principle of this method is based on the fact that hemolysis is caused by the activation of complement, when the latter is added to a complex (immune complex) of erythrocytes and the antibody thereof. The degree of hemolysis varies in proportion to the amount of complement added. Therefore, when a known amount of complement admixed with a C1 esterase inhibitor is used, the hemolysis must be suppressed in proportion to the inhibitory activity.
The anti-C1 esterase (C1r, C1s) activity was determined according to the method of Okamura et al. [K. Okamura, M. Muramatsu and B. Fujii, Biochem. Biophys. […] The figures in Table 2 have the following meanings: […]

[1] = molar concentration inhibiting 50% of TAME hydrolysis

Sequence of Plasmin (P00747 581-810 limits assumed, species assumed): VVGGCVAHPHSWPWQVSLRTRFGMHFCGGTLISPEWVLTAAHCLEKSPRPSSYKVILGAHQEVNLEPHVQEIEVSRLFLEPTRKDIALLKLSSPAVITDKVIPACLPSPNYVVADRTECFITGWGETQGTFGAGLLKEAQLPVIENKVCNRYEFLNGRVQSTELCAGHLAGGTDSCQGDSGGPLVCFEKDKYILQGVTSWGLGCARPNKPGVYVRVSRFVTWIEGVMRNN
Sequence of Plasmin (P00747 97-580 partner limits assumed, species assumed): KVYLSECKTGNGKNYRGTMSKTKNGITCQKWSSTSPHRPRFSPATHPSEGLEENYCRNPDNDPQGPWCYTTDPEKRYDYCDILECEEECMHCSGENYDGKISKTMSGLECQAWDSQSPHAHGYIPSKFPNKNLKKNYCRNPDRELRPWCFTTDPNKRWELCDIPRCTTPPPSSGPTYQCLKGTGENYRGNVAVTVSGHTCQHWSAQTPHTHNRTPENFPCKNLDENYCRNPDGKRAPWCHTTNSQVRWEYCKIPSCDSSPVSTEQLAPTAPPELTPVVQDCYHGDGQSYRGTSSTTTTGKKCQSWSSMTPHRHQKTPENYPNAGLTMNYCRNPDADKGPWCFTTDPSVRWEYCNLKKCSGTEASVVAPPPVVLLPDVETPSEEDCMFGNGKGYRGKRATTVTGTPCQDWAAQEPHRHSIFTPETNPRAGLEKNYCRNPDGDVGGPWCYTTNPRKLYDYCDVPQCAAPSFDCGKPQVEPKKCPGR

| SMILES | IC50 (Trypsin) [nM] | IC50 (Plasmin) [nM] | IC50 (Kallikrein) [nM] | IC50 (Thrombin; [1]) [nM] | IC50 (C1r) [nM] | IC50 (C1s) [nM] | Inhibition of complement mediated hemolysis (%) (complement; 1 × 10^-5) | Inhibition of complement mediated hemolysis (%) (complement; 1 × 10^-6) | Inhibition of complement mediated hemolysis (%) (complement; 1 × 10^-7) | IC50 (Thrombin) [nM] |
| --- | --- | --- | --- | --- | --- | --- | --- | --- | --- | --- |
| N=C(N)c1ccc2cc(OC(=O)c3ccc(CNC(=O)c4cccnc4)o3)ccc2c1 [compound 16] | 1000 | 1000 | 400 | 400 | 400 | 300 | 100 | 100 | 97 |  |
| N=C(N)c1ccc2cc(OC(=O)c3ccc(CNC(=O)c4cnc5ccccc5c4)o3)ccc2c1 [compound 17] | 800 | 2000 | 1000 | 700 | 500 | 2000 | 100 | 100 | 93 |  |
| N=C(N)c1ccc2cc(OC(=O)c3ccc(CNC(=O)CCOCc4ccccc4)o3)ccc2c1 [compound 18] | 900 | 500 | 500 | 500 | 300 | 3000 | 100 | 100 | 97 |  |
| N=C(N)c1ccc2cc(OC(=O)c3ccc(CNC(=O)OCc4ccccc4)o3)ccc2c1 [compound 19] | 200 | 300 | 700 | 200 | 200 | 300 | 97 | 97 | 93 |  |
| CN(C)Cc1ccc(C(=O)Oc2ccc3cc(C(=N)N)ccc3c2)o1 [compound 23] | 500 | 2000 | 3000 | 4000 | 3000 | 2000 | 100 | 95 | 76 |  |
| N=C(N)c1ccc2cc(OC(=O)c3ccc(CN4CCOCC4)o3)ccc2c1 [compound 25] | 700 | 600 | 2000 |  | 1000 | 2000 | 100 | 98 | 82 | 3000 |
| N=C(N)c1ccc2cc(OC(=O)c3ccc(CN4CCN(Cc5ccccc5)CC4)o3)ccc2c1 [compound 26] | 300 | 600 | 3000 | 2000 | 500 | 4000 | 100 | 98 | 93 |  |
